Assay results reported in patent publication US20050136444A1 (priority 2003, published 2005).
Where a name gives a salt, the structure may show the parent alone. Read-outs that look alike come from different tables or passages of the source. Each block holds one compound with its values, some of them ahead of it.

What was measured:
NPFF1 = NPFF1 (Homo sapiens, UniProt Q9GZQ6); assay: Receptor Selection and Amplification Technology (R-SAT) functional assay, NPFF1; assay type: cell-based; set-up: expressed in transfected cells; host or cells: NIH3T3; conditions: R-SAT, Table 1; for Emax: Efficacy is relative to endogenous ligand, read-out: NPFF1 % Efficacy; for EC50: NA = No activity detectable at the highest dose tested (20 μM), read-out: NPFF1 pEC50 (converted)
Method: (§1) Briefly, NIH3T3 cells were grown in 96 well tissue culture plates to 70-80% confluence. Cells were transfected for 16-20 h h with plasmid DNAs using Polyfect (Qiagen Inc.) as per manufacturer's protocols. R-SAT's were generally performed with 40 ng/well of receptor and 20 ng/well of β-galactosidase plasmid DNA. All receptor and G-protein constructs used were in the pSI-derived mammalian expression vector (Promega Inc) as described previously. […] For large-scale transfections, cells were transfected for 16-20 h, then trypsinized and frozen in DMSO. Frozen cells were later thawed, plated at ˜20,000 cells per well of a 96 half-area well plate that contained drug. With both methods, cells were then grown in a humidified atmosphere with 5% ambient CO2 for five days. Media was then removed from the plates and marker gene activity was measured by the addition of the β-galactosidase substrate o-nitrophenyl β-D-galactopyranoside (ONPG, in PBS with 0.5% NP-40). The resulting colorimetric reaction was measured in a spectrophotometric plate reader (Titertek Inc.) at 420 nm. All data were analyzed using the computer program XLFit (IDBSm).
(§2) R-SAT assay was conducted as set forth in […]

NPFF2 = biological target: T1, NPFF2 (Homo sapiens, UniProt Q9Y5X5); assay: Receptor Selection and Amplification Technology (R-SAT) functional assay, NPFF2; assay type: cell-based; conditions: Table 1; for Emax: Efficacy is relative to endogenous ligand, read-out: NPFF2 % Efficacy; for EC50 / NPFF2 pEC50: NA = No activity detectable at the highest dose tested (20 μM)
T1 construct: expressed in transfected cells; host or cells: NIH3T3
Method: as §1, §2

[1] = R-SAT, read-out: NPFF2 pEC50 (converted)

T1 sequence (Q9Y5X5 103-522): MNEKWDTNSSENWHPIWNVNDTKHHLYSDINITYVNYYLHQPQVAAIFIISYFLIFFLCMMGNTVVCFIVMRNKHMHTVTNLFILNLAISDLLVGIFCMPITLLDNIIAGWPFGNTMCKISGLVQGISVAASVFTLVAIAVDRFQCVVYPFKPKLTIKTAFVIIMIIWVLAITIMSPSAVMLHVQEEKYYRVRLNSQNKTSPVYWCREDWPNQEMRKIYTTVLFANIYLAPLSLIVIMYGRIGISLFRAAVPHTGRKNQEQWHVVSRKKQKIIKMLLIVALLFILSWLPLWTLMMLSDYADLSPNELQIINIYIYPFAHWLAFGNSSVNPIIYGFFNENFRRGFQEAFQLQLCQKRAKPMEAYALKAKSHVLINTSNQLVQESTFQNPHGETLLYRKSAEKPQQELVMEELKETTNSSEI
NPFF1, sequence (Q9GZQ6 whole entry, species assumed): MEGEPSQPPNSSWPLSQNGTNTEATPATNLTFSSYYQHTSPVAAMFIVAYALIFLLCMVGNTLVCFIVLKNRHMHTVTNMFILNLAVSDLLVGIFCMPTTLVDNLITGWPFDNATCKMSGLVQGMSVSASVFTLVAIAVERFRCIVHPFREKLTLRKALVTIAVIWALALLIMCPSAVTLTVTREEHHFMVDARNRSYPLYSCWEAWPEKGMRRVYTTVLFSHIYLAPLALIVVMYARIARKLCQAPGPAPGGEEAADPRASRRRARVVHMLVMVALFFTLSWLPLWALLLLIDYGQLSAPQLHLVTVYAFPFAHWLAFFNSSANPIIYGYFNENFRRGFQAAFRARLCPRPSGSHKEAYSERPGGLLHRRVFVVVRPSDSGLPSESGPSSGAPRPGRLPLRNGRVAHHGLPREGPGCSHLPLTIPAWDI

SMILES: CCCCC/C(=N/NC(=N)N)c1cccc(C)c1 [Compound 1001]
- Emax (NPFF2; R-SAT): 49%

SMILES: CCCCC/C(=N\NC(=N)N)c1ccc(C)cc1 [Compound 1002]
- Emax (NPFF2; R-SAT): 41%
- NPFF2 pEC50 (NPFF2; R-SAT): 6.2

SMILES: CCCC/C(=N\NC(=N)N)c1ccc(O)cc1 [Compound 1004]
- Emax (NPFF2; R-SAT): 106%

SMILES: COc1ccc(/C=N/NC(=N)N)cc1I [Compound 1005]
- Emax (NPFF2; R-SAT): 70%
- NPFF2 pEC50 (NPFF2; R-SAT): 5.5

SMILES: C/C(=N\NC(=N)N)c1cc(Br)ccc1Br [Compound 1006]
- Emax (NPFF2; R-SAT): 53%

SMILES: N=C(N)N/N=C/c1ccc(Br)cc1 [Compound 1007]
- Emax (NPFF2; R-SAT): 102%

SMILES: C/C(=N\NC(=N)N)c1ccccc1 [Compound 1010]
- Emax (NPFF2; R-SAT): 51%
- NPFF2 pEC50 (NPFF2; R-SAT): 5.2

SMILES: CN(C)c1ccc(/C=N/NC(=N)N)cc1[N+](=O)[O-] [Compound 1012]
- Emax (NPFF2; R-SAT): 51%
- NPFF2 pEC50 (NPFF2; R-SAT): 5.2

SMILES: COc1ccc(/C=N/NC(=N)N)cc1 [Compound 1014]
- Emax (NPFF2; R-SAT): 97%
- NPFF2 pEC50 (NPFF2; R-SAT): 5.0

SMILES: N=C(N)NN=Cc1cccc(C(F)(F)F)c1 [Compound 2002, 1-[3-(Trifluoromethyl)benzylideneamino]guanidine Hydrochloride]
- Emax (NPFF2; R-SAT): 39%
- EC50 (NPFF2; [1]): 2.51 µM

SMILES: CC(=NNC(=N)N)c1cccc(Br)c1 [Compound 2003, 1-[1-(3-Bromophenyl)ethylideneamino]guanidine Hydrochloride]
- Emax (NPFF2; R-SAT): 49%
- EC50 (NPFF2; [1]): 1.58 µM

SMILES: N=C(N)NN=Cc1cc(F)ccc1[N+](=O)[O-] [Compound 2004, 1-(5-Fluoro-2-nitrobenzylideneamino)guanidine Hydrochloride]
- Emax (NPFF2; R-SAT): 38%
- EC50 (NPFF2; [1]): 10 µM

SMILES: N=C(N)NN=Cc1c2ccccc2cc2ccccc12 [Compound 2006, 1-[(Anthracen-9-yl)methylideneamino]guanidine Hydrochloride]
- Emax (NPFF2; R-SAT): 51%
- EC50 (NPFF2; [1]): 0.794 µM

SMILES: COc1cc(C=NNC(=N)N)cc(OC)c1 [Compound 2007, 1-(3,5-Dimethoxybenzylideneamino)guanidine Hydrochloride]
- Emax (NPFF1): 5%
- Emax (NPFF2; R-SAT): 29%
- EC50 (NPFF2; [1]): 3.16 µM

SMILES: COc1ccc(C=NNC(=N)N)cc1F [Compound 2009, 1-(3-Fluoro-4-methoxybenzylideneamino)guanidine Hydrochloride]
- Emax (NPFF1): 9%
- Emax (NPFF2; R-SAT): 54%
- EC50 (NPFF2; [1]): 7.94 µM

SMILES: N=C(N)NN=Cc1ccc(F)c(Br)c1 [Compound 2010, 1-(3-Bromo-4-fluorobenzylideneamino)guanidine Hydrochloride]
- Emax (NPFF1): 7%
- Emax (NPFF2; R-SAT): 53%
- EC50 (NPFF2; [1]): 1.26 µM

SMILES: Cc1cc(C=NNC(=N)N)ccc1F [Compound 2012, 1-(4-Fluoro-3-methylbenzylideneamino)guanidine Hydrochloride]
- Emax (NPFF1): 9%
- Emax (NPFF2; R-SAT): 56%
- EC50 (NPFF2; [1]): 1.58 µM

SMILES: N=C(N)NN=Cc1ccc(F)c(Cl)c1 [Compound 2013, 1-(3-Chloro-4-fluorobenzylideneamino)guanidine Hydrochloride]
- Emax (NPFF1): 4%
- Emax (NPFF2; R-SAT): 34%
- EC50 (NPFF2; [1]): 0.794 µM

SMILES: COc1ccc(C=NNC(=N)N)cc1Br [Compound 2014, 1-(3-Bromo-4-methoxybenzylideneamino)guanidine Hydrochloride]
- Emax (NPFF1): 8%
- Emax (NPFF2; R-SAT): 35%
- EC50 (NPFF2; [1]): 2 µM

SMILES: N=C(N)NN=Cc1ccc(Br)cc1F [Compound 2018, 1-(4-Bromo-2-fluorobenzylideneamino)guanidine Hydrochloride]
- Emax (NPFF1): 13%
- Emax (NPFF2; R-SAT): 53%
- EC50 (NPFF2; [1]): 3.16 µM

SMILES: N=C(N)NN=Cc1ccc(Oc2ccccc2)cc1 [Compound 2020, 1-(4-Phenoxybenzylideneamino)guanidine Hydrochloride]
- Emax (NPFF1): 24%
- EC50 (NPFF1): 1.26 µM
- Emax (NPFF2; R-SAT): 31%
- EC50 (NPFF2; [1]): 0.501 µM

SMILES: N=C(N)NN=Cc1ccc2c(c1)Cc1ccccc1-2 [Compound 2028, Hydrochloride]
- Emax (NPFF1): 37%
- EC50 (NPFF1): 1.58 µM
- EC50 (NPFF2; NPFF2 pEC50, R-SAT): 1.26 µM
- Emax (NPFF2; R-SAT): 68%

SMILES: N#CCCCCOc1ccc(C=NNC(=N)N)cc1Cl [Compound 2044, 1-[3-Chloro-4-(4-cyanobutoxy)benzylideneamino]guanidine Hydrochloride]
- Emax (NPFF2; R-SAT): 45%
- EC50 (NPFF2; [1]): 3.98 µM

Continued, values first:

- Emax (NPFF1): -1%
- Emax (NPFF2; R-SAT): 32%
- EC50 (NPFF2; [1]): 5.01 µM
SMILES: COc1ccc(OC)c(C(C)=NNC(=N)N)c1 (mixture of isomers) [Compound 3029, 1-[1-(2,5-Dimethoxyphenyl)ethylideneamino]guanidine Hydrochloride]

- Emax (NPFF1): 7%
- Emax (NPFF2; R-SAT): 22%
- EC50 (NPFF2; [1]): 6.31 µM
SMILES: COc1ccc(C(C)=NNC(=N)N)c(O)c1 (mixture of isomers) [Compound 3030, 1-[1-(2-Hydroxy-4-methoxyphenyl)ethylideneamino]guanidine Hydrochloride]

- Emax (NPFF1): 81%
- EC50 (NPFF1): 3.16 µM
- Emax (NPFF2; R-SAT): 69%
- EC50 (NPFF2; [1]): 2 µM
SMILES: CCCCC(=NNC(=N)N)c1ccc(N(C)C)cc1 (mixture of isomers) [Compound 3035, 1-[1-(4-Dimethylaminophenyl)pentylideneamino]guanidine]

- Emax (NPFF1): 51%
- EC50 (NPFF1): 3.98 µM
- Emax (NPFF2; R-SAT): 87%
- EC50 (NPFF2; [1]): 3.98 µM
SMILES: CC(C)Oc1ccc(C=NNC(=N)N)cc1 [Compound 2025, 1-(4-Isopropoxybenzylideneamino)guanidine]

- Emax (NPFF1): 9%
- Emax (NPFF2; R-SAT): 58%
- EC50 (NPFF2; [1]): 7.94 µM
SMILES: CCOc1ccc(C=NNC(=N)N)cc1OCC [Compound 2026, 1-(3,4-Diethoxybenzylideneamino)guanidine]

- Emax (NPFF1): 6%
- Emax (NPFF2; R-SAT): 62%
- EC50 (NPFF2; [1]): 2.51 µM
SMILES: N=C(N)NN=Cc1ccc(Cl)c(F)c1 [Compound 2030, 1-(4-Chloro-3-fluorobenzylideneamino)guanidine Hydrochloride]

- Emax (NPFF1): 1%
- Emax (NPFF2; R-SAT): 16%
SMILES: N=C(N)NN=Cc1ccc(O)c(Cl)c1 [Compound 2031, 1-(3-Chloro-4-hydroxybenzylideneamino)guanidine Hydrochloride]

- Emax (NPFF1): 7%
- Emax (NPFF2; R-SAT): 33%
- EC50 (NPFF2; [1]): 10 µM
SMILES: Cc1cc(C=NNC(=N)N)cc(C)c1O [Compound 2033, 1-(3,5-Dimethyl-4-hydroxybenzylideneamino)guanidine Hydrochloride]

- Emax (NPFF1): 26%
- EC50 (NPFF1): 3.98 µM
- Emax (NPFF2; R-SAT): 105%
- EC50 (NPFF2; [1]): 2.51 µM
SMILES: COc1ccc(C=NNC(=N)N)c(C)c1C [Compound 2034, 1-(4-Methoxy-2,3-dimethylbenzylideneamino)guanidine Hydrochloride]

- Emax (NPFF1): 45%
- EC50 (NPFF1): 3.98 µM
- Emax (NPFF2; R-SAT): 114%
SMILES: NC(N)=NN=Cc1ccc(Cl)c(C(F)(F)F)c1 [Compound 2035, 1-[4-Chloro-3-(trifluoromethyl)benzylideneamino]guanidine Hydrochloride]

- Emax (NPFF1): 9%
- Emax (NPFF2; R-SAT): 77%
- EC50 (NPFF2; [1]): 3.98 µM
SMILES: N=C(N)NN=Cc1ccc2c(c1)OCCCO2 [Compound 2038, 1-[3,4-Dihydro-2H-benzo[b][1,4]dioxepin-7-yl)methylideneamino]guanidine Hydrochloride]

- Emax (NPFF1): 18%
- Emax (NPFF2; R-SAT): 65%
- EC50 (NPFF2; [1]): 7.94 µM
SMILES: CC(=NNC(=N)N)c1ccc2c(c1)OCCO2 [Compound 2040, 1-[1-(2,3-Dihydro-benzo[1,4]dioxin-6-yl)ethylideneamino]guanidine Hydrochloride]

- Emax (NPFF2; R-SAT): 60%
- EC50 (NPFF2; [1]): 0.794 µM
SMILES: C=CCOc1ccc(C=NNC(=N)N)cc1Cl [Compound 2042, 1-(4-Allyloxy-3-chlorobenzylideneamino)guanidine Hydrochloride]

- Emax (NPFF2; R-SAT): 47%
- EC50 (NPFF2; [1]): 2 µM
SMILES: COc1ccc(C=NNC(=N)N)cc1Cl [Compound 2043, 1-(3-Chloro-4-methoxybenzylideneamino)guanidine Hydrochloride]

- Emax (NPFF1): 21%
- Emax (NPFF2; R-SAT): 96%
- EC50 (NPFF2; [1]): 10 µM
SMILES: CCOCCOc1ccc(/C=N/NC(=N)N)cc1Cl [Compound 2054, 1-[3-Chloro-4-(2-ethoxy-ethoxy)benzylideneamino])guanidine Acetate]

- Emax (NPFF1): 6%
- Emax (NPFF2; R-SAT): 73%
- EC50 (NPFF2; [1]): 0.501 µM
SMILES: CCC(=NNC(=N)N)c1ccc(Cl)c(Cl)c1 [Compound 2056, 1-(3,4-Dichlorophenyl)-1-(propylideneaminoguanidine) Hydrochloride]

- Emax (NPFF1): 25%
- EC50 (NPFF1): 1 µM
- Emax (NPFF2; R-SAT): 60%
- EC50 (NPFF2; [1]): 0.501 µM
SMILES: N=C(N)NN=Cc1cccc(-c2ccccc2C(F)(F)F)c1 [Compound 2058, 1-[3-(2-Trifluoromethylphenyl)benzylideneamino]guanidine Hydrochloride]

- Emax (NPFF1): 31%
- EC50 (NPFF1): 10 µM
- Emax (NPFF2; R-SAT): 79%
- EC50 (NPFF2; [1]): 5.01 µM
SMILES: COc1cc(Cl)cc(C=NNC(=N)N)c1OC [Compound 2059, 1-(5-Chloro-2,3-dimethoxybenzylideneamino)guanidine Hydrochloride]

- Emax (NPFF1): 26%
- EC50 (NPFF1): 3.98 µM
- Emax (NPFF2; R-SAT): 48%
- EC50 (NPFF2; [1]): 3.98 µM
SMILES: N=C(N)NN=Cc1ccc(C(F)(F)F)cc1F [Compound 2060, 1-[2-Fluoro-4-(trifluoromethyl)benzylideneamino]guanidine Hydrochloride]
